ChEMBL document CHEMBL1201862, “PubChem BioAssay data set” (2004)
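Step 1: Grow cells in 96-well plates. Step 2: Expose to compound for 48 hours at 5 concentrations. Step 3: Interpolate endpoints linearly; if unreached, use highest concentration. The concentration for 50% growth inhibition is given as GI50.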 Calls of active or inactive are those of the source. Cut-off read from the data, not from the text of the source: active = GI50 up to about 1.1 µM and inactive = higher.

What was measured:
Experiment in all cases: NCI-60 cell line screen, 48 h
BT-549 = test system: BT-549
CAKI-1 = test system: CAKI-1
COLO 205 = test system: COLO 205
DU-145 = test system: DU-145
HCT-116 = test system: HCT-116
HCT-15 = test system: HCT-15
HL-60 = test system: HL-60
HOP-62 = test system: HOP-62
HT-29 = test system: HT-29
Hs-578T = test system: Hs-578T
Malme-3M = test system: Malme-3M
NCI-H23 = test system: NCI-H23
OVCAR-8 = test system: OVCAR-8
RXF 393 = test system: RXF 393
SF-295 = test system: SF-295
SK-MEL-28 = test system: SK-MEL-28
SNB-75 = test system: SNB-75
SR = test system: SR
SW-620 = test system: SW-620
UO-31 = test system: UO-31

SMILES: Cc1cccc(C2NC(=O)c3ccccc3N2)c1 (stereo not given)
- GI50 (BT-549): 5.68 µM (inactive)
- GI50 (CAKI-1): 8.65 µM (inactive)
- GI50 (COLO 205): 4.19 µM (inactive)
- GI50 (DU-145): 7.96 µM (inactive)
- GI50 (HCT-116): 3.28 µM (inactive)
- GI50 (HCT-15): 2.85 µM
- GI50 (HL-60): 0.802 µM (active)
- GI50 (HOP-62): 6.03 µM (inactive)
- GI50 (HT-29): 2.75 µM (inactive)
- GI50 (Hs-578T): 8.43 µM (inactive)
- GI50 (Malme-3M): 17.7 µM (inactive)
- GI50 (NCI-H23): 5.11 µM (inactive)
- GI50 (OVCAR-8): 6.1 µM (inactive)
- GI50 (RXF 393): 4.44 µM (inactive)
- GI50 (SF-295): 2.88 µM (inactive)
- GI50 (SK-MEL-28): > 28.7 µM (inactive)
- GI50 (SNB-75): 4.5 µM (inactive)
- GI50 (SR): 0.791 µM (active)
- GI50 (SW-620): 5.62 µM (inactive)
- GI50 (UO-31): > 26.4 µM (inactive)

SMILES: CC(=O)NC1C(OCc2ccccc2)OC(CO)C(O)C1OCC(=O)NC(C)C(=O)NC(CCC(=O)NCCCCCNc1c2ccccc2nc2cccc([N+](=O)[O-])c12)C(N)=O (stereo not given)
- GI50 (BT-549): < 0.0001 µM (active)
- GI50 (CAKI-1): < 0.0001 µM (active)
- GI50 (COLO 205): < 0.0001 µM (active)
- GI50 (DU-145): < 0.0001 µM (active)
- GI50 (HCT-116): < 0.0001 µM (active)
- GI50 (HCT-15): < 0.0001 µM
- GI50 (HL-60): < 0.0001 µM (active)
- GI50 (HOP-62): < 0.0001 µM (active)
- GI50 (HT-29): < 0.0001 µM (active)
- GI50 (Hs-578T): < 0.01 µM (active)
- GI50 (Malme-3M): < 0.0001 µM (active)
- GI50 (NCI-H23): < 0.0001 µM (active)
- GI50 (OVCAR-8): < 0.0001 µM (active)
- GI50 (RXF 393): < 0.01 µM (active)
- GI50 (SF-295): < 0.0001 µM (active)
- GI50 (SK-MEL-28): < 0.0001 µM (active)
- GI50 (SNB-75): < 0.0001 µM (active)
- GI50 (SR): 0.00217 µM (active)
- GI50 (SW-620): < 0.0001 µM (active)
- GI50 (UO-31): < 0.01 µM (active)

SMILES: c1ccc(-c2nnc(-c3ccccn3)c3c2C[C@@H]2C[C@@H]4Cc5c(-c6ccccn6)nnc(-c6ccccn6)c5[C@@H]4[C@H]32)nc1
- GI50 (BT-549): 41.2 µM (inactive)
- GI50 (CAKI-1): 58.7 µM (inactive)
- GI50 (COLO 205): 35.1 µM (inactive)
- GI50 (DU-145): 38.8 µM (inactive)
- GI50 (HCT-116): 39.8 µM (inactive)
- GI50 (HCT-15): 38.8 µM
- GI50 (HL-60): 24.7 µM (inactive)
- GI50 (HOP-62): 41.2 µM (inactive)
- GI50 (HT-29): 44.9 µM (inactive)
- GI50 (Hs-578T): 70.3 µM (inactive)
- GI50 (Malme-3M): 75.7 µM (inactive)
- GI50 (NCI-H23): > 100 µM (inactive)
- GI50 (OVCAR-8): 36.8 µM (inactive)
- GI50 (RXF 393): > 100 µM (inactive)
- GI50 (SF-295): 58.9 µM (inactive)
- GI50 (SK-MEL-28): 34.8 µM (inactive)
- GI50 (SNB-75): 76.6 µM (inactive)
- GI50 (SR): 41.4 µM (inactive)
- GI50 (SW-620): 63.1 µM (inactive)
- GI50 (UO-31): 21.7 µM (inactive)

SMILES: COc1ccc(C2(CC(C)O)SCCCS2)cc1 (stereo not given)
- GI50 (BT-549): > 100 µM (inactive)
- GI50 (CAKI-1): > 100 µM (inactive)
- GI50 (COLO 205): > 100 µM (inactive)
- GI50 (DU-145): > 100 µM (inactive)
- GI50 (HCT-116): > 100 µM (inactive)
- GI50 (HCT-15): > 100 µM
- GI50 (HL-60): 37.2 µM (inactive)
- GI50 (HOP-62): > 100 µM (inactive)
- GI50 (HT-29): > 100 µM (inactive)
- GI50 (Hs-578T): > 100 µM (inactive)
- GI50 (Malme-3M): > 100 µM (inactive)
- GI50 (NCI-H23): > 100 µM (inactive)
- GI50 (OVCAR-8): > 100 µM (inactive)
- GI50 (RXF 393): > 100 µM (inactive)
- GI50 (SF-295): > 100 µM (inactive)
- GI50 (SK-MEL-28): > 100 µM (inactive)
- GI50 (SNB-75): > 100 µM (inactive)
- GI50 (SR): > 100 µM (inactive)
- GI50 (SW-620): > 100 µM (inactive)
- GI50 (UO-31): > 100 µM (inactive)

SMILES: NC1(c2cc3ccccc3s2)CCCC1
- GI50 (BT-549): > 100 µM (inactive)
- GI50 (CAKI-1): > 100 µM (inactive)
- GI50 (COLO 205): 22.9 µM (inactive)
- GI50 (DU-145): > 100 µM (inactive)
- GI50 (HCT-116): 33.8 µM (inactive)
- GI50 (HCT-15): 65.2 µM
- GI50 (HL-60): 18.3 µM (inactive)
- GI50 (HOP-62): > 100 µM (inactive)
- GI50 (HT-29): 32.9 µM (inactive)
- GI50 (Hs-578T): > 100 µM (inactive)
- GI50 (Malme-3M): 36.9 µM (inactive)
- GI50 (NCI-H23): > 100 µM (inactive)
- GI50 (OVCAR-8): > 100 µM (inactive)
- GI50 (RXF 393): 43.8 µM (inactive)
- GI50 (SF-295): 71.3 µM (inactive)
- GI50 (SK-MEL-28): 23.7 µM (inactive)
- GI50 (SNB-75): 67.9 µM (inactive)
- GI50 (SR): 21.1 µM (inactive)
- GI50 (SW-620): 49.2 µM (inactive)
- GI50 (UO-31): 69.2 µM (inactive)

SMILES: O=C1C(Cl)C(c2cc3cc(Br)ccc3nc2Cl)N1c1c(Cl)cccc1Cl (stereo not given)
- GI50 (BT-549): 10.2 µM (inactive)
- GI50 (CAKI-1): 8.65 µM (inactive)
- GI50 (COLO 205): > 25 µM (inactive)
- GI50 (DU-145): > 25 µM (inactive)
- GI50 (HCT-116): 9.12 µM (inactive)
- GI50 (HCT-15): 13.4 µM
- GI50 (HL-60): 8.24 µM (inactive)
- GI50 (HOP-62): > 25 µM (inactive)
- GI50 (HT-29): > 25 µM (inactive)
- GI50 (Hs-578T): > 25 µM (inactive)
- GI50 (Malme-3M): > 25 µM (inactive)
- GI50 (NCI-H23): 20.4 µM (inactive)
- GI50 (OVCAR-8): 10.8 µM (inactive)
- GI50 (RXF 393): 9.91 µM (inactive)
- GI50 (SF-295): > 25 µM (inactive)
- GI50 (SK-MEL-28): > 25 µM (inactive)
- GI50 (SNB-75): > 25 µM (inactive)
- GI50 (SR): 4.78 µM (inactive)
- GI50 (SW-620): 11.6 µM (inactive)
- GI50 (UO-31): 1.3 µM (inactive)

SMILES: Nc1nc(Cl)c2ncn(Cc3ccc(CCl)cc3)c2n1
- GI50 (BT-549): 6.84 µM (inactive)
- GI50 (CAKI-1): 2.49 µM (inactive)
- GI50 (COLO 205): 3.64 µM (inactive)
- GI50 (DU-145): 6.59 µM (inactive)
- GI50 (HCT-116): 2.76 µM (inactive)
- GI50 (HCT-15): 4.95 µM
- GI50 (HL-60): 6.81 µM (inactive)
- GI50 (HOP-62): 6.85 µM (inactive)
- GI50 (HT-29): 9.73 µM (inactive)
- GI50 (Hs-578T): 29.2 µM (inactive)
- GI50 (Malme-3M): 11.3 µM (inactive)
- GI50 (NCI-H23): 12 µM (inactive)
- GI50 (OVCAR-8): 5.13 µM (inactive)
- GI50 (RXF 393): 1.3 µM (inactive)
- GI50 (SF-295): 10.8 µM (inactive)
- GI50 (SK-MEL-28): 18 µM (inactive)
- GI50 (SNB-75): 23.1 µM (inactive)
- GI50 (SR): 3.02 µM (inactive)
- GI50 (SW-620): 3.37 µM (inactive)
- GI50 (UO-31): 11.9 µM (inactive)

SMILES: N#Cc1c(C#N)c(SSc2c(C#N)c(C#N)c(N)n2-c2ccc(F)cc2)n(-c2ccc(F)cc2)c1N
- GI50 (BT-549): 2.88 µM (inactive)
- GI50 (CAKI-1): 8.17 µM (inactive)
- GI50 (COLO 205): 1.95 µM (inactive)
- GI50 (DU-145): 16 µM (inactive)
- GI50 (HCT-116): 1.9 µM (inactive)
- GI50 (HCT-15): 2.03 µM
- GI50 (HL-60): 2 µM (inactive)
- GI50 (HOP-62): 17.8 µM (inactive)
- GI50 (HT-29): 20.5 µM (inactive)
- GI50 (Hs-578T): 25.8 µM (inactive)
- GI50 (Malme-3M): 1.87 µM (inactive)
- GI50 (NCI-H23): 6.73 µM (inactive)
- GI50 (OVCAR-8): 6.55 µM (inactive)
- GI50 (RXF 393): 3.01 µM (inactive)
- GI50 (SF-295): 17.9 µM (inactive)
- GI50 (SK-MEL-28): 3.72 µM (inactive)
- GI50 (SNB-75): 5.77 µM (inactive)
- GI50 (SR): 0.59 µM (active)
- GI50 (SW-620): 2.25 µM (inactive)
- GI50 (UO-31): 2.06 µM (inactive)

SMILES: Nc1cc(Cl)cc2cc(Cl)cnc12
- GI50 (BT-549): > 100 µM (inactive)
- GI50 (CAKI-1): > 100 µM (inactive)
- GI50 (COLO 205): > 100 µM (inactive)
- GI50 (DU-145): > 100 µM (inactive)
- GI50 (HCT-116): > 100 µM (inactive)
- GI50 (HCT-15): > 100 µM
- GI50 (HL-60): 43.1 µM (inactive)
- GI50 (HOP-62): > 100 µM (inactive)
- GI50 (HT-29): > 100 µM (inactive)
- GI50 (Hs-578T): 89.7 µM (inactive)
- GI50 (Malme-3M): > 100 µM (inactive)
- GI50 (NCI-H23): > 100 µM (inactive)
- GI50 (OVCAR-8): > 100 µM (inactive)
- GI50 (RXF 393): > 100 µM (inactive)
- GI50 (SF-295): > 100 µM (inactive)
- GI50 (SK-MEL-28): > 100 µM (inactive)
- GI50 (SNB-75): 40.3 µM (inactive)
- GI50 (SR): 38 µM (inactive)
- GI50 (SW-620): > 100 µM (inactive)
- GI50 (UO-31): 34.8 µM (inactive)

SMILES: Cc1cc(C)c2c(n1)S(=O)(=O)N(CCCN1CCN(c3cccc(C(F)(F)F)c3)CC1)C(C(=O)c1ccc(Cl)cc1)=C2O
- GI50 (BT-549): 6.1 µM (inactive)
- GI50 (CAKI-1): 1.11 µM (active)
- GI50 (COLO 205): 1.84 µM (inactive)
- GI50 (DU-145): 4.67 µM (inactive)
- GI50 (HCT-116): 2.81 µM (inactive)
- GI50 (HCT-15): 1.85 µM
- GI50 (HL-60): 1.87 µM (inactive)
- GI50 (HOP-62): 5.81 µM (inactive)
- GI50 (HT-29): 4.03 µM (inactive)
- GI50 (Hs-578T): 5.55 µM (inactive)
- GI50 (Malme-3M): 3.27 µM (inactive)
- GI50 (NCI-H23): 2.47 µM (inactive)
- GI50 (OVCAR-8): 3.83 µM (inactive)
- GI50 (RXF 393): 4.34 µM (inactive)
- GI50 (SF-295): 3.29 µM (inactive)
- GI50 (SK-MEL-28): 5.21 µM (inactive)
- GI50 (SNB-75): 2.81 µM (inactive)
- GI50 (SR): 0.507 µM (active)
- GI50 (SW-620): 3.69 µM (inactive)
- GI50 (UO-31): 1.33 µM (inactive)
